Measured values published in patent US20240174684A1, “INHIBITORS OF cGAS ACTIVITY AS THERAPEUTIC AGENTS” (BELLBROOK LABS, LLC, priority 2021, published 2024).
pIC50: −log10 of the molar value. Converted amounts (≈) assume the structure as drawn. Read-outs that look alike come from different tables or passages of the source.

Legend:
[1] = Metabolic stability in human hepatocytes; type: in vitro ADME; conditions: read-out: Human MS Stability t1/2
Experimental: (§1) ADME studies: Compound A and the compounds of the disclosure were tested for aqueous solubility (KSOL), metabolic stability (human and mouse […]) and permeability (Caco-2 and/or MDR1-MDCK cells) to provide an initial indication of oral bioavailability.
(§2) The favorable physicochemical properties are reflected in promising results in in vitro ADME tests. […] Metabolic stability, which was routinely measured with mouse and human hepatocytes, is outstanding, with t, greater than 2 hours for all of the compounds of the disclosure in which it has been measured. Cell permeability was measured using MDCK cells expressing human MDR1 (P-glycoprotein) to assess passive permeability as well as active transport out of the cell. […] Numerous compounds in Table 1 meet these permeability criteria, which is consistent with their design for TPSA <140 Å^2 and increased lipophilicity.
(§3) The MDCK-MDR1 permeability A ->B is shown in Table 2 below, where A represents 5-10 cm/s×10^−6; B represents 1-5 cm/s×10^−6; and C represents <1 cm/ss×10^−6. The metabolic stability half time, in both mouse and human hepatocytes, is also shown in Table 2 below, where A′ represents 100-200 minutes; B′ represents 200-300 minutes; and C′ represents >300 minutes.

MDR1 (P-glycoprotein) = assay: MDCK-MDR1 permeability A→B; type: in vitro ADME, Canine; conditions: dog; MDCK cells expressing human MDR1, A→B; read-out: MDCK-MDR Permeability A→B
Procedure, shortened: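 Permeability measured apical-to-basolateral in MDCK cells expressing human MDR1, reported as binned ranges in cm/s×10^−6. Metabolic stability determined as half-life in mouse and human hepatocytes, reported as binned ranges in minutes.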

[2] = Metabolic stability in mouse hepatocytes; type: in vitro ADME; conditions: read-out: Mouse MS Stability t1/2
Experimental: as §1, §2, §3

cGAS [3] = target: T1, cGAS (Homo sapiens, UniProt Q8N884); assay: Transcreener cGAS enzymatic assay (FP); type: biochemical
T1 sequence (Q8N884 whole entry): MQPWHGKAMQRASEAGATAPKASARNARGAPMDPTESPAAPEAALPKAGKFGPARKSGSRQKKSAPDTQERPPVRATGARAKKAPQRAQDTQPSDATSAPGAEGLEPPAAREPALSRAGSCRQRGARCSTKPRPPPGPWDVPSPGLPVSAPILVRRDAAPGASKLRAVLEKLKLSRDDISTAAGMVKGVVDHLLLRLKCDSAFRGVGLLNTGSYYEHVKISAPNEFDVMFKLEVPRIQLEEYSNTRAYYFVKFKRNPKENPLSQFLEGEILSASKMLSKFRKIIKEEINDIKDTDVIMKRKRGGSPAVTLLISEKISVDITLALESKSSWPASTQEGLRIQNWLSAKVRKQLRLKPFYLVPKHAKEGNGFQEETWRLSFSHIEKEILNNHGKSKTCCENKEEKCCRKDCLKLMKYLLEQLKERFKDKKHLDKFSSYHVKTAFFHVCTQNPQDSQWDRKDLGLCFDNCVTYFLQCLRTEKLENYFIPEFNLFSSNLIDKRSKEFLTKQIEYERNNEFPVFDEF
Procedure, shortened: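 Human cGAS (30 nm) inhibition, 60 min reactions, FP read-out, standard conditions 100 μM ATP and GTP plus 62.5 nM bp ISD. Also run at 1 mM ATP and GTP (physiological), with 200 μM MnCl2, and with mouse cGAS under standard conditions; IC50 reported.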

[4] = test system: IFN-β production in PBMCs; assay: IFNβ ELISA in human primary PBMCs; type: cell-based; conditions: PBMC
Text: Cellular assays: The human monocyte cell line THP-1 and human primary PBMCs were used to evaluate the cellular activity of compounds with good biochemical potency. These cells produce a robust cGAS/STING-dependent type I IFN response when stimulated with dsDNA and other pathogen-associated molecular patterns, which was detected using a standard ELISA for IFNβ (R&D Systems). The TBK1 inhibitor, BX-795, which acts downstream of cGAS/STING, was used as a probe.
The ICso values for IFNB ELISA stimulated with THP-1, PBMC, DNA, and cGAMP were determined for several exemplary compounds of the invention, and are provided in Table 3 where A represents <1 μM; B represents 1-2.5 μM; C represents 2.5-10 μM; D represents 10-20 μM; and E represents >20 μM.
(§4) The reporter gene assays were used to assess off-target activity with IRF30Luc (RIG-1) or NFKB (TLR4); CellTiter Glo (ATP levels) and Presto Blue (reducing equivalents) were used to assess cytotoxicity; all assays were performed in dose response mode. […] The inventors recently began using human PBMCs to assess cellular potency in a more physiologically relevant context.

[5] = Kinetic aqueous solubility (KSOL) in PBS, pH 7.4; type: physicochemical; conditions: aqueous buffer, kinetic from dmso stock
Experimental: as §1, §2

[6] = test system: IFNβ production in THP-1 cells; assay: IFNβ ELISA in THP-1 cells; type: cell-based, human; conditions: for pIC50: Homo sapiens, THP-1 cells
Procedure, shortened: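 THP-1 cells stimulated with dsDNA or cGAMP (STING activation bypassing cGAS) in the presence of compound; IFNβ secreted into medium quantified by ELISA. IC50 values reported in potency bins.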

[7] = test system: isolated Luc reporter enzyme; assay: Isolated Luc reporter enzyme inhibition; type: biochemical; conditions: at 80 μM
RIG-1 signaling = assay: Reporter gene assay IRF30Luc (RIG-1); type: cell-based; conditions: concentrations as high as 100 μM
Experimental: (§5) CETSA was also used to confirm that the compounds are binding to cGAS in cells; THP-1 cells are used for this analysis. Compounds were tested in dose response mode by incubating with cells for 1.5 hours at 37° C., followed by pelleting and re-suspending in PBS, heating to 51.5° C. for 3 min and cooling to room temp. Cells were then lysed, debris, including denatured cGAS, was pelleted and the supernatant was analyzed for soluble cGAS by Western Blot using anti-cGAS primary Ab (Cell Signaling). Band intensity was analyzed using Image J software. Stimulation with cGAMP directly activates STING, circumventing cGAS; this was used to determine if compounds had effects on downstream components of cGAS/STING signaling. The IFN-6 ELISA was used as the primary measure of cellular potency and selectivity (Table 3) and used the reporter gene assays for assessing off-target activity with other pattern recognition receptors.
as §4

mouse cGAS = mouse cGAS (Mus musculus, UniProt Q8C6L5); assay: Transcreener cGAS enzymatic assay with mouse cGAS; type: biochemical; conditions: standard conditions, read-out: IC50 with mcGAS
Sequence of mouse cGAS (Q8C6L5 whole entry): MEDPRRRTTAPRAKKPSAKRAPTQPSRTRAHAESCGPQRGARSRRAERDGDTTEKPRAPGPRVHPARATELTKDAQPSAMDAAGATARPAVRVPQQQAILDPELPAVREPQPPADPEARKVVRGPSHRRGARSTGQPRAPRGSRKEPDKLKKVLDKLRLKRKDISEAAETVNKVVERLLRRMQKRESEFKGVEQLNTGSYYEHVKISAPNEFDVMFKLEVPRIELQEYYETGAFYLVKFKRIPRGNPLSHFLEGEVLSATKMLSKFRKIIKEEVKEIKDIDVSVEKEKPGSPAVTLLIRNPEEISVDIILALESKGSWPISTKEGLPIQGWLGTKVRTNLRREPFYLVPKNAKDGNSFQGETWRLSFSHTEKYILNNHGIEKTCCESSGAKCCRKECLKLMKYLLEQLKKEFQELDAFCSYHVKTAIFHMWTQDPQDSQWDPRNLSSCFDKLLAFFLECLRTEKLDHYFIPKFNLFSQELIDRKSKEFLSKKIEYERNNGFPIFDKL
Experimental: Structural, biochemical and biophysical analysis and selectivity profiling: Potency and MOA studies, including Mn^2+ sensitivity, were performed using the Transcreener cGAS enzymatic assay, which is manufactured at BellBrook Labs (Fitchburg, Wisconsin, USA). This homogenous cGAS enzymatic assay was developed with fluorescence polarization (FP) and time-resolved Forster resonance energy transfer (TR-FRET) readouts, as described in International Patent Publication WO 2020/142729, incorporated by reference herein in its entirety. Plates are read on a PHERAstar FSX multimode reader (BMG). The compounds of the disclosure were tested for inhibition of cGAS ([…]) using this cGAS enzymatic assay under standard conditions (100 μM ATP and GTP, 62.5 nM bp ISD, 60 minute reactions), high ATP and GTP (1 mM) to mimic physiological conditions, in the presence of 200 μM MnCl2, and with mouse cGAS under standard conditions.
Potency with mcGAS is important for vivo efficacy studies and represents a challenge for lead development because mcGAS shares only 57% amino acid identity with human enzyme and there are significant functional differences.

cGAS [8] = target: T1, cGAS; assay: Cellular thermal shift assay (CETSA) in THP-1 cells; type: cell-based; conditions: heat treatment 51.5 °C
Experimental: Panel A is an image of a western blot of the stabilization measure; panel B is a bar graph of the stabilization measure. Heat treatment was conducted at 51.5 ° C.
as §5

[9] = Cytotoxicity, CellTiter Glo (ATP levels) and Presto Blue (reducing equivalents); type: cell-based; conditions: concentrations as high as 100 μM
Experimental: as §4

[10] = target: isolated SEAP reporter enzyme (Homo sapiens, UniProt P05187); assay: Isolated SEAP reporter enzyme inhibition; type: biochemical
Sequence of isolated SEAP reporter enzyme (P05187 23-511 limits assumed): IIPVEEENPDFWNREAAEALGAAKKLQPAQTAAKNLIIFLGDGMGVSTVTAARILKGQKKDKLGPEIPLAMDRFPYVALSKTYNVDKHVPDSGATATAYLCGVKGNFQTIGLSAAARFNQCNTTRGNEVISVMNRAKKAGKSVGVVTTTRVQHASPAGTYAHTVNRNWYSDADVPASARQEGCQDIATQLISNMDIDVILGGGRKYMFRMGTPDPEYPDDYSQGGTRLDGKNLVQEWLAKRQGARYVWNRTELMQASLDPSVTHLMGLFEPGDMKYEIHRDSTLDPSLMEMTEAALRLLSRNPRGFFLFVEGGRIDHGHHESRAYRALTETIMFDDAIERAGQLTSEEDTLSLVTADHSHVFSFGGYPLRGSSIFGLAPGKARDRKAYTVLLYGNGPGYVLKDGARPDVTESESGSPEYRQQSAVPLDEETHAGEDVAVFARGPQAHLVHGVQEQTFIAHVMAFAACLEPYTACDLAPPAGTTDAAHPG

TLR4 pathway = assay: Reporter gene assay NFKB (TLR4); type: cell-based; conditions: concentrations as high as 100 μM
Experimental: as §5, §4

[11] = high ATP and GTP (1 mM) to mimic physiological conditions, read-out: IC50 FP Physiological
[12] = standard conditions: 100 μM ATP and GTP, 62.5 nM bp ISD, 60 minute reactions, read-out: IC50 FP Standard

Row | Compound | half-life [1] [h] | Papp A→B (MDR1 (P-glycoprotein)) [×10⁻⁶ cm/s] | half-life [2] [h] | pIC50 (cGAS [3]; [11]) | pIC50 (cGAS [3]; [12]) | pIC50 [4] | solubility kinetic [5] [µM] | pIC50 [6] | half-life ([2]; given as number) [h] | Cellular IC50 relative to biochemical IC50 ([6]; cellular assays vs cGAS enzymatic assay at 1 mM ATP/GTP) | Inhibition of isolated Luc [7] [%] | Inhibition of RIG-1 signaling (RIG-1 signaling) | pIC50 (mouse cGAS) | Stabilization of cGAS in cells (CETSA) (cGAS [8]) | Cytotoxicity [9] | Inhibition of isolated SEAP reporter enzyme [10] | Inhibition of TLR4 signaling (TLR4 pathway)
1 | Cc1nc(N2C[C@@H](CC(=O)Nc3ccc(Cc4ccccc4)cc3)C[C@H]2C(=O)O)c2oc3ccccc3c2n1 [Compound 54, (28.4R)-4-(2-((4-benzylphenyl)amino)-2-oxoethyl)-1-(2-methylbenzofuro[3,2-d]pyrimidin-4-yl)pyrrolidine-2-carboxylic acid] | 1.67 to 3.33 | 1 to 5 | 1.67 to 3.33 | 6.00 to 6.30 | 7.00 to 7.30 | 5.00 to 5.60 | 285 (≈ 148 µg/mL) | 5.60 to 6.00 | – | – | – | – | – | – | – | – | –
2 | Cc1nc(N2C[C@@H](CC(=O)Nc3ccc4ccccc4c3)C[C@H]2C(=O)O)c2oc3ccccc3c2n1 [Compound 31, (2S,4R)-1-(2-methylbenzofuro[3,2-d]pyrimidin-4-yl)-4-(2-(naphthalen-2-ylamino)-2-oxoethyl)pyrrolidine-2-carboxylic acid] | 1.67 to 3.33 | 5 to 10 | > 5 | 6.30 to 6.70 | 7.00 to 7.30 | 5.60 to 6.00 | 313 (≈ 150 µg/mL) | 5.60 to 6.00 | – | – | – | – | – | – | – | – | –
3 | C#Cc1ccc(NC(=O)C[C@H]2C[C@@H](C(=O)O)N(c3nc(C)nc4c3oc3ccccc34)C2)cc1 [Compound 27, (2S,4R)-4-(2-((4-ethynylphenyl)amino)-2-oxoethyl)-1-(2-methylbenzofuro[3,2-d]pyrimidin-4-yl)pyrrolidine-2-carboxylic acid] | 1.67 to 3.33 | 1 to 5 | > 5 | 5.30 to 6.00 | 6.70 to 7.00 | 5.00 to 5.60 | 548 (≈ 249 µg/mL) | 5.00 to 5.60 | – | – | – | – | – | – | – | – | –
4 | Cc1nc(N2C[C@@H](CC(=O)Nc3ccc(-c4ccccc4)c(C(F)(F)F)c3)C[C@H]2C(=O)O)c2oc3ccccc3c2n1 [Compound 63, (2S,4R)-1-(2-methylbenzofuro[3,2-d]pyrimidin-4-yl)-4-(2-oxo-2-((2-(trifluoromethyl)-[1,1′-biphenyl]-4-yl)amino)ethyl)pyrrolidine-2-carboxylic acid] | 1.67 to 3.33 | 1 to 5 | – | 6.30 to 6.70 | 6.70 to 7.00 | 5.60 to 6.00 | 570 (≈ 327 µg/mL) | > 6.00 | > 6 | essentially identical | – | – | – | – | – | – | –
5 | Cc1nc(N2C[C@@H](CC(=O)Nc3ccc(Cl)c(Cl)c3)C[C@H]2C(=O)O)c2oc3ccccc3c2n1 [Compound 26, (2S,4R)-4-(2-((3,4-dichlorophenyl)amino)-2-oxoethyl)-1-(2-methylbenzofuro[3,2-d]pyrimidin-4-yl)pyrrolidine-2-carboxylic acid] | > 5 | 5 to 10 | > 5 | 5.30 to 6.00 | 6.00 to 6.70 | 5.00 to 5.60 | 80 (≈ 39.9 µg/mL) | 5.00 to 5.60 | – | – | – | – | – | – | – | – | –
6 | Cc1nc(N2C[C@@H](CC(=O)Nc3cccc(-c4ccccc4)c3)C[C@H]2C(=O)O)c2oc3ccccc3c2n1 [Compound 36, (2S,4R)-4-(2-([1,1′-biphenyl]-3-ylamino)-2-oxoethyl)-1-(2-methylbenzofuro[3,2-d]pyrimidin-4-yl)pyrrolidine-2-carboxylic acid] | > 5 | 1 to 5 | > 5 | 6.30 to 6.70 | 7.00 to 7.30 | 5.60 to 6.00 | 155 (≈ 78.5 µg/mL) | 5.60 to 6.00 | – | – | – | – | – | – | – | – | –
7 | Cc1nc(N2C[C@@H](CC(=O)Nc3ccc4ncsc4c3)C[C@H]2C(=O)O)c2oc3ccccc3c2n1 [Compound 4, (2S,4R)-4-(2-(benzo[d]thiazol-6-ylamino)-2-oxyethyl)-1-(2-methylbenzofuro[3,2-d]pyrimidin-4-yl)pyrrolidine-2-carboxylic acid] | – | 1 to 5 | 1.67 to 3.33 | > 6.70 | 7.00 to 7.30 | – | 488 (≈ 238 µg/mL) | < 4.70 | – | – | 50 | no detectable inhibition | 5.08 | stabilized cGAS | no cytotoxicity | appreciably | no detectable inhibition
